Experiment: gradient 5% acetonitrile 3 min, to 50% in 2 min, to 85% in 15 min, held 3 min, 100 µL/min
Conditions: column: Zorbax Extend-C18 2.1 x 50 mm; eluents: water / acetonitrile, 0.1% formic acid
In short: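 Standards, all pure, were combined into mixtures of ~100 molecules and run at 100 μL/min on a Zorbax Extend-C18 column (2.1 × 50 mm, 1.8 μm) with water and acetonitrile, each containing 0.1% formic acid. A coupled quadrupole time-of-flight mass spectrometer operated in positive and negative ionization mode. Retention time values come from computationally picked adduct peaks, each inspected manually.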

| RP-LC retention time | Compound |
| --- | --- |
| 725 s | CCN1CCn2cc(S(=O)(=O)Nc3ccc(C)cc3F)cc2C1=O |
| 764 s | CCc1cc(=O)n(CC(=O)N(C)c2cccc(C)c2)c(N2CCOCC2)n1 |
| 804 s | CCOC(=O)CNC(=O)N1CCCC1c1ccccc1Cl (stereo not drawn) |
| 546 s | Cc1cc(C)n(CCN2CCN(C(=O)C3CCC3)CC2)n1 |
| 858 s | CCOCCCNC(=O)C1CCN(C2=NS(=O)(=O)C(c3ccc(C(C)C)cc3)=C2C)CC1 |
| 948 s | Cc1sc(-c2noc(C3CCC3)n2)cc1S(=O)(=O)N1CCC(C(=O)N2CCOCC2)CC1 |
| 1290 s | COc1cc(OC)cc(-c2nc(C3CC(=O)N(c4ccc(Cl)cc4)C3)no2)c1 (stereo not drawn) |
| 695 s | O=C(NC1CCN(C(=O)c2cc(-c3cccs3)[nH]n2)CC1)c1cccs1 |
| 611 s | CC1CCCCN1CCCNC(=O)Cn1c(=O)c2cccn2c2ccc(F)cc21 (stereo not drawn) |
| 918 s | CCCN1C(=O)COc2ccc(-c3csc(NC(=O)C(C)C)n3)cc21 |
| 892 s | O=C(CCn1c(N2CCCC2)nc2ccsc2c1=O)Nc1cccc(Cl)c1 |
| 812 s | O=C(CSc1nc(N2CCCCC2)nc2ccccc12)Nc1cccc(Br)c1 |
| 686 s | O=C1NCCCn2cc(S(=O)(=O)Nc3ccc(F)c(Cl)c3)cc21 |
| 950 s | CCOC(=O)c1[nH]c(C)c(C(=O)C(C)N(Cc2ccc(F)cc2)C(=O)C(C)C)c1C (stereo not drawn) |
| 839 s | CC(=O)c1ccc(NC(=O)C2CCCN(c3nc(C)nc4oc(C)c(C)c34)C2)cc1 (stereo not drawn) |
| 587 s | COc1cccc(NC(=O)Nc2ccc3nc(N4CCN(C)CC4)cc(C)c3c2)c1 |
| 638 s | COCCCNC(=O)C1CC(=O)N(c2n[nH]c3cccc(F)c23)C1 (stereo not drawn) |
| 684 s | COc1cc(CN2CC(c3nc(-c4ccsc4)nn3C)C2)ccc1OC(C)C |
| 888 s | COc1ccc(-n2c(=O)n(C)c(=O)c3cc(C(=O)NCc4ccc(C)cc4)cnc32)cc1 |
| 866 s | CCn1ccc2sc(C)c(C(=O)NCc3ccc(SC)cc3)c2c1=O |
| 704 s | O=C(CN1C(=O)CC(c2ccccc2)S(=O)(=O)c2ccccc21)N1CCOCC1 (stereo not drawn) |
| 988 s | Cn1cc2c3c(cccc31)CN(C(=O)c1ccc(Cl)cc1)CC2 |

| RP-LC retention time | Compound |
| --- | --- |
| 588 s | CCn1c(=O)c(C(=O)N2CCN(c3ccccn3)CC2)nc2ccccc21 |
| 831 s | CCCc1nnc(SCC(=O)NC2CCCCCC2)n1-n1cccc1 |
| 968 s | CCc1ccc(NC(=O)N2CCC3(CC2)NC(=O)c2ccc(Cl)cc2N3CC)cc1 |
| 600 s | CCOc1ncccc1CNC(=O)c1cnccn1 |
| 711 s | O=C1OCC/C1=C\c1ccc(O)cc1 |
| 802 s | CCN1C(=O)Cc2ccccc2C1C(=O)NCc1ccc(Br)cc1 (stereo not drawn) |
| 713 s | O=C(CC1CCCC1)NCCc1noc(C2CC2)n1 |
| 769 s | Cc1noc(C2CN(C(=O)Nc3ccc(Cl)cc3F)CC23CCOCC3)n1 (stereo not drawn) |
| 763 s | Cc1ccc(-c2cc(C(=O)N3CCC(NC(=O)c4cccs4)CC3)[nH]n2)c(C)c1 |
| 580 s | CNC(=O)c1cc(=O)[nH]c2ccccc12 |
| 654 s | CCn1cc(C(=O)N2CCC(c3nnc(-c4ccco4)o3)CC2)c(=O)c2ccc(C)nc21 |
| 727 s | Cc1ccccc1CNC(=O)C1CCN(S(=O)(=O)c2c(C)[nH]c(C)c2C(=O)N2CCCC2)CC1 |
| 765 s | CSc1ccc(CCNC(=O)c2ccc3c(c2)nc(C)c(=O)n3C)cc1 |
| 772 s | CCC(=O)c1ccc2c(c1)N(CCCN(C)C)c1ccccc1S2 |
| 643 s | Cc1ccc(-c2cc3c(=O)n(CC(=O)N4CCCc5ccccc54)ccn3n2)cc1 |
| 826 s | CCCc1noc(-c2ccc3nnc(CC(=O)NC4CCCCC4)n3c2)n1 |
| 838 s | CC(C)CCNC(=O)C1CCN(c2nc3ccsc3c(=O)n2-c2ccccc2)CC1 |
| 891 s | CCCNS(=O)(=O)c1cc(-c2nnc(-c3ccccc3)o2)ccc1OC |
| 877 s | COc1cc([N+](=O)[O-])cc2sc(NC(=O)c3cc(=O)c4ccccc4o3)nc12 |
| 1080 s | CCc1cc(=O)n(CC(=O)Nc2cccc(C#N)c2)c(-c2ccccc2)n1 |
| 800 s | COCC(=O)N(CC(=O)N1CCc2sccc2C1COc1cccc(OC)c1)C1CC1 (stereo not drawn) |
| 1020 s | COc1cc(-c2noc(Cn3nc(-c4ccc(Br)cc4)ccc3=O)n2)cc(OC)c1OC |

| RP-LC retention time | Compound |
| --- | --- |
| 729 s | CCc1ccccc1NS(=O)(=O)c1cc(-c2[nH]ncc2C(=O)N(C)C)oc1C |
| 708 s | Cc1onc(-c2ccccc2Cl)c1C(=O)NCCn1nc(-c2ccccc2)n(C)c1=O |
| 868 s | CC(=O)N1c2ccc(S(=O)(=O)N3CCCCC3)cc2CC1C(=O)Nc1ccc(C)cc1C (stereo not drawn) |
| 833 s | CCS(=O)(=O)c1nc2ccc(NS(=O)(=O)c3ccc(OC)cc3)cc2s1 |
| 636 s | Cc1ccccc1CC(=O)N1CCN(c2nc(CN3CCOCC3)cs2)CC1 |
| 784 s | Cc1ccc(-c2nnc(-c3cccc(S(=O)(=O)NC(C)C(=O)O)c3)o2)cc1 (stereo not drawn) |
| 829 s | CCOc1ccc2nc(NC(=O)C3CCN(S(=O)(=O)c4cn(C(C)C)cn4)CC3)sc2c1 |
| 931 s | COc1ccc(NC(=O)c2cc(C(C)C)n(C3CCS(=O)(=O)C3)n2)cc1Cl (stereo not drawn) |
| 755 s | CC1CCN(CCNS(=O)(=O)c2ccccc2-c2nc(-c3cccc(F)c3)no2)CC1 |
| 870 s | COc1ccc(-c2nc(Cn3cnc4nc5c(cc4c3=O)CC(C)CC5)c(C)o2)cc1OC (stereo not drawn) |
| 653 s | Nc1ccc(-c2ccc3ncc4ccc(=O)n(-c5cccc(C(F)(F)F)c5)c4c3c2)cn1 |
| 600 s | Cc1cc2nn(CC(=O)NCc3ccc4c(c3)OCO4)c(=O)n2c(-c2ccccc2)n1 |
| 713 s | Cc1sc2ccn(Cc3ccc(F)cc3)c(=O)c2c1C(=O)N1CCOCC1 |
| 976 s | Cc1nc(-c2ccc(N3CCN(C(=O)c4ccc(F)c(F)c4)CC3)nc2)sc1C |
| 1130 s | Cc1ccc(OCc2nc(-c3cccc(-c4ccnn4C)c3)no2)cc1 |
| 808 s | Cc1ccc(NC(=O)Cn2c(=O)c3cc(C4CC4)nn3c3ncccc32)c(C)c1 |
| 612 s | O=C1CC(c2nc3ccccc3n2CCN2CCOCC2)CN1Cc1ccc(F)cc1 (stereo not drawn) |
| 702 s | Cc1noc(COC2CCN(C(=O)c3ccc4c(c3)OCO4)CC2)n1 |
| 765 s | CC1(C(=O)NCc2ccc(F)cc2)CCCN(C(=O)NCc2ccco2)C1 (stereo not drawn) |
| 597 s | CCc1nc2c(N)cccn2n1 |
| 886 s | CCCC(CCC)C(=O)NCCc1c[nH]c2cc(OC)ccc12 |
| 685 s | CNC(=O)C1CCCN(c2nc3ncn(CC(=O)Nc4ccc(Cl)cc4)c(=O)c3s2)C1 (stereo not drawn) |

| RP-LC retention time | Compound |
| --- | --- |
| 657 s | CCS(=O)(=O)NCc1ccc2c(c1)CCN2C(=O)c1ccccc1 |
| 578 s | O=c1c(NCc2ccccn2)nc2ccncc2n1Cc1ccccc1 |
| 1050 s | Cc1cc(C)cc(Oc2nccn3c(=O)n(CC(=O)Nc4cc(Cl)ccc4C)nc23)c1 |
| 944 s | Cc1ccc(NC(=O)N2CCc3c(c(-c4nnc(-c5ccc(F)cc5)o4)nn3C)C2)c(Cl)c1 |
| 746 s | CCc1noc(NC(C)=O)c1-c1ccc(OC)c(S(=O)(=O)NC(C)CC)c1 (stereo not drawn) |
| 854 s | CC(=O)c1cccc(NC(=O)CN2C(=O)CC(c3ccccc3)=Nc3cccnc32)c1 |
| 1190 s | Cc1ccc(-n2ncc3c(=O)n(Cc4nc(-c5ccc(F)c(Cl)c5)no4)cnc32)cc1 |
| 884 s | CCc1noc(NC(C)=O)c1-c1ccc(OC)c(S(=O)(=O)NCc2ccccc2C)c1 |
| 781 s | O=C(NCc1cccc2ccccc12)NCC1CN(c2ccccc2)C(=O)O1 (stereo not drawn) |
| 611 s | COc1ccc(OCC(=O)N2CCN(c3nc(CN4CCOCC4)cs3)CC2)cc1 |
| 1260 s | CSc1ccc(-c2noc(Cn3ncn4nc(-c5cc(C)ccc5C)cc4c3=O)n2)cc1 |
| 647 s | O=C(NCCCN1CCCC1=O)c1ccc2ccnc(N3CCN(c4ccc(F)cc4)CC3)c2c1 |
| 797 s | COCc1cc(=O)n(CC(=O)Nc2ccc(F)cc2)c(N2CCOCC2)n1 |
| 574 s | Cn1nc(C(=O)N2CCCC2)c2c1CCN(C(=O)CCC(=O)NCCN1CCCCC1)C2 |
| 1000 s | Cc1nc2cc(-c3noc(-c4ccc(C#N)cc4F)n3)ccc2o1 |
| 957 s | COc1ccc(NC(=O)C2CCN(S(C)(=O)=O)c3cc(C)ccc3O2)cc1Cl (stereo not drawn) |
| 760 s | CCN1C(=O)c2cccnc2Sc2cc(CNC(=O)c3ccc(C#N)cc3F)ccc21 |
| 656 s | COc1ccc(-c2noc3ncnc(N4CCC(C(=O)N5CCC(C(N)=O)CC5)CC4)c23)cc1 |
| 726 s | CN(c1cccc(Cl)c1)S(=O)(=O)c1cc2n(c1)CCCNC2=O |
| 1040 s | Cc1nc(C2(C)CCN(S(=O)(=O)c3ccc(Cl)cc3C)CC2)no1 |

| Compound | RP-LC retention time |
| --- | --- |
| Fc1ccc(C(OCCN2CCN(C/C=C/c3ccccc3)CC2)c2ccc(F)cc2)cc1 | 916 s |
| O=C1CC[C@@]2(O)C3Cc4ccc(O)c5c4C2(CCN3CC2CC2)[C@H]1O5 (stereo partly drawn) | 599 s |

Source: the METLIN SMRT retention time set (Domingo-Almenara et al. 2019)
